Test results published in US20220347299A1, “FLUORESCENT SYSTEMS FOR BIOLOGICAL IMAGING AND USES THEREOF” (LIGHTOX LIMITED, priority 2019, published 2022).

Tests used:
[1] = system: S. epidermidis; assay: Baclight staining (propidium iodide / Syto 9), widefield imaging, S. epidermidis; format: cell-based, Staphylococcus epidermis; conditions: 1 μM
Experimental: Samples prepared according to Table 9 were treated with compounds by diluting 10 mM of stock solution in media to make a 100 μM concentration. This solution was then further diluted 1:10 and 1:100 in media to make 10 μM and 1 μM media solutions containing the compound. 50 μl of cell culture were then added to the 100 μM, 10 μM and 1 μM compound-containing media preparations. Following the treatment outlined in Table 9, each of the three bacterial strains were stained using a Baclight™ staining kit containing separate solutions of Syto™ 9 and Propidium Iodide. One extra sample treated with 0.1 μM of each compound was also included in this assay. M. smegmatis, S. epidermis and B. subtilis were stained with propidium iodide to show non-viable cells and with Syto 9 to show all cells. The following staining procedure was used: • 1. 1 ml of each sample was eluted into a well of a 12-well plate; • 2. One half of the 12 well plate was irradiated at approximately 15 mW/cm^2 for 5 mins; • 3. The content of each well was eluted into separate Eppendorfs and centrifuged at 10,000 r.p.m for 3 rains to form a culture pellet; • 4. Media was then removed, and each pellet resuspended in 200 μl of 1× PBS before being centrifuged at 10,000 r.p.m. for 3 mins. • 5. A preparation of Baclight™-staining solution was made using 1 ml 1× PBS, 3 μl propidium iodide and 3 μl Syto™ 9; • 6. […]

[2] = system: S. epidermidis; assay: Overnight growth curve (OD 600 nm) cytotoxicity assay, S. epidermidis; format: cell-based, Staphylococcus epidermis
Experimental: A sample of S. epidermidis was taken from a plate culture and inoculated into Luria Broth to culture overnight at 30° C. for approximately 16 hours.
Samples were incubated in darkness at room temperature for approximately 2 hrs. A black clear bottom Costar™-96 well plate was then filled, with 200 μl of sample in each well Cells were irradiated for 5 minutes at approximately 15 mW/cm^2. The cytotoxicity of the compounds without irradiation was also assessed.
The 96 well plate was put into the plate reader and set up to run a growth curve protocol using the following parameters: • Incubation temperature: 37° C. • OD read wavelength 600 nm • 250 cycles, readings every 5 rains • Shaking for 5 s pre-reading
This was left to run overnight to obtain kinetic growth curves based on optical density readings.

[3] = Peak absorption and fluorescence emission wavelengths in solvents; format: physicochemical; conditions: for λem(max)/nm: 100 nM, excitation at peak of absorption; for λabs(max)/nm: 10 μM
Experimental: Peak absorption and fluorescence emission wavelengths of compounds 6, 7, 12, 13, 14, 15, 19, 23, 27, 30 and 34 were measured in a variety of solvents, and the results are shown in Table 1. Absorption measurements were recorded at a concentration of 10 μM, and emission measurements were recorded at a concentration of 100 nM. Emission spectra were recorded with excitation at the peak of absorption (S0→S1).

[4] = system: Bacillus subtilis; assay: Overnight growth curve (OD 600 nm) cytotoxicity assay, B. subtilis; format: cell-based
Experimental: A sample of B. subtilis was taken from a plate culture and inoculated into Luria Broth to culture overnight at 37° C. for approximately 16 hours. [table] Samples were incubated in darkness at room temperature for approximately 2 hrs. A black clear bottom Costar™-96 well plate was then filled, with 200 μl of sample in each well Cells were irradiated for 5 minutes at approximately 15 mW/cm^2. The cytotoxicity of the compounds without irradiation was also assessed. The 96 well plate was put into the plate reader and set up to run a growth curve protocol using the following parameters: • Incubation temperature: 37° C. • OD read wavelength 600 nm • 250 cycles, readings every 5 rains • Shaking for 5 s pre-reading This was left to run overnight to obtain kinetic growth curves based on optical density readings.

[5] = system: HaCaT keratinocytes; assay: Co-staining with organelle markers, co-localisation (PCC); format: cell-based; conditions: 1 μM compound, 30 minutes, BODIPY ER-Tracker Red
Experimental: To study the localisation of compounds in biological cells, co-staining of compounds of formula I with specific organelle markers (fluorescent dyes and antibodies) within biological cells was conducted. The following compounds were studied: compounds 6, 7, 12, 13, 14 and 15. HaCaT keratinocyte cell lines were used for the following experimental procedures. The cells were incubated in cell culture media (94% Dulbecco's Modified Eagle Medium (DMEM), 5% Foetal Bovine Serum (FBS) and 1% Penicillin Streptomycin solution (Pen-Strep). The cells were plated in 8-well plates, at a concentration of 25,000 cells per ml. 200 μl of cell suspension was added to each well, and the cells were incubated for 2 days before staining and imaging was carried out. In order to visualise the mitochondria, cells were probed with the mitochondrial dye MitoTracker® Deep Red. Cells to be stained were incubated with 200 μl MitoTracker® Deep Red solution (200 nM MitoTracker® and 1 μM Formula I compound in cell culture media) per well (N=3) for 30 minutes. Nile Red was used to identify lipids within the cells. 200 μl Nile Red Lipophilic dye (10 μg/ml Nile Red and 1 μM Formula I compound in cell culture media) was added to each well (N=3) and incubated for 30 minutes. For the detection of lysosomes within the cells, LysoTracker® Red DND-99 dye was used. 200 μl LysoTracker® Red DND-99 (50 nM LysoTracker® and 1 μM Formula I compound solution in cell culture media) was added to each well (N=3) and incubated for 30 minutes. For visualisation of the endoplasmic reticulum (ER), cells were stained with BODIPY® ER-Tracker® Red. 200 μl BODIPY ER-Tracker® Red (1 μM BODIPY® and 1 μM Formula I compound solution in cell culture media) was added to each well (N=3) and incubated for 30 minutes. Following incubation, the cell culture media containing dye was removed, and cells were washed twice with 200 μl phosphate buffered saline (PBS). After washing, 200 μl PBS was added into each well for imaging. For visualisation of the nuclear lamina, cells were probed with an anti-lamin A/C antibody. The cells were plated on 22×22 mm cover slips (10,000 cells/ml) and incubated for 2 days before staining. The cells were washed with PBS to remove excess media before staining. The cells were fixed with 4% paraformaldehyde (PFA) for 10 minutes at room temperature, before being washed twice in PBS for 5 minutes. Following washing, the cells were permeabilised in 0.4% Triton X-100 in PBS for 10 minutes. The cells were subsequently washed three times in PBS for 5 minutes, before being incubated in blocking buffer (1% BSA, 0.1% fish gelatine and 0.1% Triton X-100 in PBS) for 15 minutes at room temperature. The cells were incubated in primary antibody (mouse anti-lamin A/C IgG in blocking buffer) for 1 hour at room temperature. The cells were then washed twice in blocking buffer and incubated in secondary antibody (anti-mouse Alexa-594 IgG in blocking buffer) for 30 minutes at room temperature. Cells were washed twice in PBS for 10 minutes at room temperature. For cell staining with compounds of formula I, 5 μM of the compound of formula I in PBS was added to the cells for 30 minutes at room temperature. Cells were then washed five times for 5 minutes in PBS. Following washing, the cells were mounted onto non-charged microscopy slides using 6 μl Mowiol® per cover slip as mounting media. A Zeiss 880 confocal microscope was used for all the imaging work. [table] Image) Coloc2 software was used to calculate co-localization statistics between the compounds of formula I and the organelle marker images. The background was subtracted from each image and a region of interest (ROI) was used to target the analysis. The point spread function (PSF) of each image was calculated as 2.0 and Coastes' iterations was set to 100. The statistic quantified was the Pearson's Correlation Coefficient (PCC). PCC gives a number ranging from +1 to −1:1=perfect co-localisation; 0=no relationship; and, −1=perfect anti-co-localisation. […]

λem(max)/nm ([3]; DCM): 550 nm
λabs(max)/nm ([3]; DCM): 368 nm
λem(max)/nm ([3]; Toluene): 482 nm
λabs(max)/nm ([3]; Toluene): 358 nm
average PCC Value with BODIPY ER-Tracker [5]: 0.48
SMILES: CC(C)(C)OC(=O)/C=C/c1ccc(C#Cc2ccc(N3CCNCC3)cc2)cc1 [Compound 6, tert-butyl (2E)-3-(4-{2-[4-(piperazin-1-yl)phenyl]ethynyl}phenyl)prop-2-enoate]
non-viable (red, propidium iodide) cells compared with untreated controls [1]: increase in red fluorescent cells
lag phase of growth of S. epidermidis, photoactivated ([2]; 1 μM, 405 nm, 5 min, approximately 15 mW/cm^2, untreated lag around 2 hrs): around 15 hrs
growth of S. epidermidis, non-photoactivated ([2]; 1 μM, not irradiated): minor impact on growth by extended lag phase
growth of S. epidermidis ([2]; 100 and 10μ concentrations, with or without photoactivation): no growth is evident regardless of any photoactivation
growth of B. subtilis ([4]; 10 μM, effect much more significant in the radiated sample): growth is reduced and lag time extended
growth of B. subtilis, radiated ([4]; 5 and 1 μM, 405 nm, 5 min): some growth inhibition
